Converted amounts (≈) assume the structure as drawn. “And” between values parts separate entries of the source, which are not always exact repeats. Equal values may be shown once. Read-outs that look alike come from different tables or passages of the source. Blank lines part the entries; values can stand above or below the compound they belong to.
What was measured:
[1] = In vitro permeability, Franz diffusion cell, PermeaPad barrier; type: in vitro ADME; conditions: for Papp at 5 h: read-out: Papp, PermeaPad (PP)
Description: (§1) Permeability experiments were performed using the reverse dialysis set-up adapted to the Franz diffusion cell (PermeGear, Inc., Hellertown, PA, USA). This method was successfully applied by di Cagno et al. for the permeability evaluation of a whole set of diverse drugs. The donor solution of the investigated compound was placed in the lower chamber. The membrane was mounted between the donor and acceptor chambers. At the start of the experiment, the upper (acceptor) compartment was filled with the respective pure buffer. The donor solution was stirred with a magnetic stirrer bar. The samples of 0.5 mL were withdrawn from the receptor solution each 30 min over 5 h and replaced with the same volume of pure buffer. The volume of the donor solution in the lower compartment was 7 mL and the receptor volume was 1 mL. A schematic diagram of the equipment is illustrated in Figure 2.
(§2) Two types of barriers were applied for the permeability evaluation: the regenerated cellulose membrane (RC) with a molecular weight cut off MWCO 12–14 kDa (Standard Grade RC Dialysis Membrane, Flat Width 45 mm) and the PermeaPad (PP) barrier (PHABIOC, Germany, www.permeapad.com, accessed on 20 May 2021). The PermeaPad barrier was used as received from the supplier. The cellulose membrane was pretreated with distilled water for 30 min and the traces of water were removed with filter paper before use. The membrane effective surface area was 0.785 cm^2. Buffer solution pH 2.0 was applied throughout the experiment due to impossibility of the drug detection in the receptor solution at pH 7.4, where S-119 solubility is extremely low. […] The temperature of the system was maintained at 37.0 ± 0.1 °C. The concentrations of the sample solutions were measured using spectrophotometer (Spectramax 190; Molecular devices, Molecular Devices Corporation, California, CA, USA) in 96-well UV black plates (Costar) at λ = 261 nm. The permeation plots were constructed as the amount of the permeated drug over the surface area (dQ/A) versus time (t). Flux (J) was calculated as a slope of permeation plots by the equation:(2) J=dQ/A×dt
(§3) The slope (J) normalized by the concentration of the drug in the donor compartment (C0) represents the apparent permeability coefficient (Papp):(3) Papp=J/C0
(§4) The average value of Papp from at least 3 experiments was taken into consideration.

[2] = In vitro permeability, Franz diffusion cell, regenerated cellulose membrane; type: in vitro ADME; conditions: for Papp at 5 h: read-out: Papp, Cellulose Membrane (RC)
Description: as §1, §2, §3, §4

[3] = donor: pure buffer pH 2.0; cited from earlier work
[4] = cationic species of FCZ in acidic solution; first value, CD not printed (β-CD assumed); cited from earlier work
[5] = cationic species of FCZ in acidic solution; second value, CD not printed (HP-β-CD assumed); cited from earlier work
[6] = cited from earlier work
[7] = Phase solubility study: equilibrium solubility of S-119 in buffers with excipients; type: physicochemical; conditions: for solubility enhancement vs pure buffer: pH 2.0
Description: (§5) Excess amounts of S-119 were added to buffered aqueous solutions containing increasing concentrations of excipients.
(§6) In order to analyze the information on solubilization, micelle formation and complexation obtained in the present study, the standard Gibbs energy (at 25 °C) of the outlined processes was calculated by the following equations:(7) ΔGS0(Cexc)=−RTlnS2/S20, where ΔGS0(Cexc) —the standard free energy of solubilization—transferring a compound from the aqueous buffer solution to the excipient solution of a defined concentration (Cexc), S20 and S2 —the solubility of a drug in pure buffer and at a defined excipient concentration, respectively; R is the universal gas constant; T is the standard temperature of 25 °C (8) ΔGC^0=−RTlnKs where ΔGC0 is the change of the complexation Gibbs energy, KS is the stability constant of the complexation reaction (9) ΔGm/w0=−RTlnKm/w where ΔGm/w0 is the standard Gibbs energy of the partition between the micelle and water phases, Km/w is the partition coefficient.

[8] = Complexation with α-CD (phase solubility, Higuchi and Connors); type: physicochemical; conditions: for Stability constant (KS): S-119/α-CD complex; for Stability constant (KS) / Complexation efficiency (CE) / Gibbs free energy of complexation (ΔGC0): 25 °C; for Complexation efficiency (CE): S-119/α-CD
Description: as §5, §6

[9] = Complexation with β-CD (phase solubility, Higuchi and Connors); type: physicochemical; conditions: for Stability constant (KS): S-119/β-CD complex; for Stability constant (KS) / Complexation efficiency (CE) / Gibbs free energy of complexation (ΔGC0): 25 °C; for Complexation efficiency (CE): S-119/β-CD
Description: as §5, §6

[10] = Complexation with HP-β-CD (phase solubility, Higuchi and Connors); type: physicochemical; conditions: for Gibbs free energy of complexation (ΔGC0) / Stability constant (KS) / Complexation efficiency (CE): 25 °C; for Stability constant (KS): S-119/HP-β-CD complex; for Complexation efficiency (CE): S-119/HP-β-CD
Description: as §5, §6

[11] = Complexation with O-M-β-CD (phase solubility, Higuchi and Connors); type: physicochemical; conditions: for Gibbs free energy of complexation (ΔGC0) / Stability constant (KS) / Complexation efficiency (CE): 25 °C; for Stability constant (KS): S-119/O-M-β-CD complex; for Complexation efficiency (CE): S-119/O-M-β-CD
Description: as §5, §6

[12] = cited from earlier work; remark: listed apart in the source
[13] = design: method as in doi:10.1016/j.molliq.2021.116535; conditions: cited from earlier work
[14] = Micellar solubilization by non-ionic surfactants (solubilization capacity, micelle/water partition); conditions: F127; pH 7.4; 25 °C
Description: Moreover, the increase in the surfactant concentration can reduce the number of hydrogen binding sites available for the association of the compound and surfactant. At that point, the surfactant molecules interact with water, affect its structuring and hinder the interactions with positively charged species. […] To this end, the solubilization capacity (χ) representing the amount of the compound that can be solubilized by one mole of polymer was calculated using the following equation [53]:(4) χ=(S2−S20)/(Csurf−CMC) where S2 and S20 are the total solute solubility at a particular concentration of surfactant solution and the intrinsic solute solubility, respectively; Csurf is the surfactant concentration; CMC is the surfactant critical micelle concentration. All concentrations are expressed in molarity. Taking into account that above the CMC the concentration of surfactant monomers is equal to the CMC, the concentration of micelles can be determined as (Csurf − CMC). The CMC of Brij S20 and F127 were taken from the literature [54, 55, 56, 57]. […] Besides this, a micelle/water molar partition coefficient (Km/w) was derived using the following equation [58]:(5) Km/w=Sm/S20=(S2−S20)/S20
The favorable/unfavorable character of any process can be assessed using Gibbs free energy.

[15] = pH 2, donor: pure buffer pH 2.0, 37 °C
[16] = donor: 1.5 w/v% 6-O-M-β-CD in buffer pH 2.0, 37 °C
[17] = donor: 1.5 w/v% HP-β-CD in buffer pH 2.0, 37 °C
[18] = donor: 1.5 w/v% β-CD in buffer pH 2.0, 37 °C
[19] = donor: pure buffer pH 2.0, 37 °C
[20] = pH 2, donor: 1.5 w/v% 6-O-M-β-CD in buffer pH 2.0, 37 °C
[21] = pH 2, donor: 1.5 w/v% HP-β-CD in buffer pH 2.0, 37 °C
[22] = pH 2, donor: 1.5 w/v% β-CD in buffer pH 2.0, 37 °C

flux J, PermeaPad (PP) ([1]; 5 h, pH 2): 3.50 × 10^−5 µM∙cm^−2∙s^−1 | flux J, Cellulose Membrane (RC) ([2]; 5 h, pH 2): 1.31 × 10^−4 µM∙cm^−2∙s^−1 | Papp at 5 h [2, 15]: 49 ×10⁻⁶ cm/s
SMILES: OC(Cn1cncn1)(Cn1cncn1)c1ccc(F)cc1F [FCZ, fluconazole]
Papp, PermeaPad (PP) [3]: (1.74 ± 0.03) × 10^−5 cm∙s^−1 | KS [4]: 10.7 M⁻¹ | KS [5]: 13.5 M⁻¹ | solubility growth ([6]; 0.0016 M aqueous β-CD solution): 1.1 fold | solubility increase ([6]; 0.004 M HP-β-CD): 1.2 fold | higher solubility ([6]; 0.08 M aqueous HP-β-CD): 4 fold | solubility enhancement ([6]; aqueous 0.02 M β-CD): 1.84 fold

SMILES: OC(CN1CCN(CC(O)(Cn2cncn2)c2ccc(F)cc2F)CC1)(Cn1cncn1)c1ccc(F)cc1F (stereo not drawn) [S-119, 3,3′-(piperazine-1,4-diyl)bis(2-(2,4-difluorophenyl)-1-(1H-1,2,4-triazol-1-yl)propan-2-ol)]
solubility growth vs pure buffer ([7]; 0.0015 M β-CD, pH 7.4): 6.8 fold | solubility growth vs pure buffer ([7]; 0.01 M HP-β-CD, pH 7.4): 24 fold | solubility growth vs pure buffer ([7]; 0.07 M HP-β-CD, pH 7.4): 151 fold | solubility growth vs pure buffer ([7]; 20% PVP): 232 fold | solubility enhancement vs pure buffer ([7]; 10 w/v% PEG 6000): 1.45 fold | solubility enhancement vs pure buffer ([7]; 10 w/v% PEG 35000): 1.20 fold | solubility enhancement vs pure buffer ([7]; 10 w/v% PVP): 1.32 fold | growth of solubility vs pure buffer ([7]; pH 7.4, 10 w/v% Brij S20): 199 fold | growth of solubility vs pure buffer ([7]; pH 7.4, 10 w/v% F-127): 281 fold | extent of the solubilization vs pure buffer ([7]; pH 7.4, PEG 6000): 193 fold | extent of the solubilization vs pure buffer ([7]; pH 7.4, PVP): 232 fold | Stability constant (KS) ([8]; pH 2.0): 5.0 ± 0.2 M⁻¹ and 5 M⁻¹ | Stability constant (KS) ([8]; pH 7.4): 304.4 ± 17 M⁻¹ | Complexation efficiency (CE) ([8]; pH 2.0): 2.2% | Complexation efficiency (CE) ([8]; pH 7.4): 1.2% | phase solubility diagram type (Higuchi and Connors classification) ([8]; α-CD, both pHs): AL-type | Gibbs free energy of complexation (ΔGC0) ([8]; α-CD, pH 2.0): -4.00 kJ/mol | Gibbs free energy of complexation (ΔGC0) ([8]; α-CD, pH 7.4): -14.17 kJ/mol | Stability constant (KS) ([9]; pH 2.0): 27.4 ± 1.0 M⁻¹ and 27.4 M⁻¹ | Stability constant (KS) ([9]; pH 7.4): 4424.9 ± 162.7 M⁻¹ | Complexation efficiency (CE) ([9]; pH 2.0): 12.2% | Complexation efficiency (CE) ([9]; pH 7.4): 17.7% | phase solubility diagram type (Higuchi and Connors classification) ([9]; β-CD, linear region 0 to 0.003 M CD): BS-type | Gibbs free energy of complexation (ΔGC0) ([9]; β-CD, pH 2.0): -8.21 kJ/mol | complex stability relative to FCZ complex ([9]; β-CD, pH 7.4): 47 fold | Gibbs free energy of complexation (ΔGC0) ([9]; β-CD, pH 7.4): -20.81 kJ/mol | phase solubility diagram type (Higuchi and Connors classification) ([10]; HP-β-CD, both pHs): AL-type | Gibbs free energy of complexation (ΔGC0) ([10]; HP-β-CD, pH 2.0): -6.55 kJ/mol | complex stability relative to FCZ complex ([10]; HP-β-CD, pH 7.4): 52 fold | Gibbs free energy of complexation (ΔGC0) ([10]; HP-β-CD, pH 7.4): -19.15 kJ/mol | Stability constant (KS) ([10]; pH 2.0): 14.0 ± 0.6 M⁻¹ | Stability constant (KS) ([10]; pH 7.4): 2261.0 ± 79.0 M⁻¹ | Complexation efficiency (CE) ([10]; pH 2.0): 6.2% | Complexation efficiency (CE) ([10]; pH 7.4): 9.1% | phase solubility diagram type (Higuchi and Connors classification) ([11]; O-M-β-CD, both pHs): AL-type | Gibbs free energy of complexation (ΔGC0) ([11]; O-M-β-CD, pH 2.0): -7.26 kJ/mol | Gibbs free energy of complexation (ΔGC0) ([11]; O-M-β-CD, pH 7.4): -20.36 kJ/mol | Stability constant (KS) ([11]; pH 2.0): 18.7 ± 0.7 M⁻¹ | Stability constant (KS) ([11]; pH 7.4): 3693.4 ± 185.3 M⁻¹ | Complexation efficiency (CE) ([11]; pH 2.0): 8.3% | Complexation efficiency (CE) ([11]; pH 7.4): 14.8% | permeability class (classification of di Cagno et al. for PermeaPad) ([1]; 1.5 w/v% CDs in donor solution, pH 2.0): low-medium permeability class | permeability decrease vs pure buffer ([1]; PP barrier, 1.5 w/v% O-M-β-CD donor solution, pH 2.0): 2.63 fold | permeability class (classification of di Cagno et al. for PermeaPad) ([1]; buffer pH 2.0): highly permeated substance | flux J, PermeaPad (PP) [1, 16]: 1.01 × 10^−5 µM∙cm^−2∙s^−1 | flux J, PermeaPad (PP) [1, 17]: 1.00 × 10^−5 µM∙cm^−2∙s^−1 | flux J, PermeaPad (PP) [1, 18]: 9.93 × 10^−6 µM∙cm^−2∙s^−1 | flux J, PermeaPad (PP) [1, 19]: 2.20 × 10^−5 µM∙cm^−2∙s^−1 | Papp at 5 h [1, 20]: 5.62 ×10⁻⁶ cm/s | Papp at 5 h [1, 21]: 7.81 ×10⁻⁶ cm/s | Papp at 5 h [1, 22]: 6.12 ×10⁻⁶ cm/s | Papp at 5 h [1, 15]: 14.8 ×10⁻⁶ cm/s | permeability decrease vs pure buffer ([2]; RC membrane, 1.5 w/v% HP-β-CD donor solution, pH 2.0): 1.87 fold | flux J, Cellulose Membrane (RC) [2, 16]: 2.68 × 10^−5 µM∙cm^−2∙s^−1 | flux J, Cellulose Membrane (RC) [2, 17]: 2.21 × 10^−5 µM∙cm^−2∙s^−1 | flux J, Cellulose Membrane (RC) [2, 18]: 2.90 × 10^−5 µM∙cm^−2∙s^−1 | flux J, Cellulose Membrane (RC) [2, 19]: 3.49 × 10^−5 µM∙cm^−2∙s^−1 | Papp at 5 h [2, 20]: 23.1 ×10⁻⁶ cm/s | Papp at 5 h [2, 21]: 14.5 ×10⁻⁶ cm/s | Papp at 5 h [2, 22]: 19.6 ×10⁻⁶ cm/s | Papp at 5 h [2, 15]: 27.1 ×10⁻⁶ cm/s | logD^oct [12]: 1.43 | solubility in aqueous solutions ([13]; pH 2.0): 4.45 mM (≈ 2490 µg/mL) | solubility in aqueous solutions ([13]; pH 7.4): 0.0401 mM (≈ 22.5 µg/mL) | Gibbs free energy of micelle formation (ΔGm/w0) [14]: -25.96 kJ/mol

Reference: article PMC8621413, “New Antifungal Compound: Impact of Cosolvency, Micellization and Complexation on Solubility and Permeability Processes” (Pharmaceutics, 2021)
